Experimental findings from patent US11034672B1, “Tyrosine kinase inhibitor compositions, methods of making and methods of use” (Black Diamond Therapeutics, Inc., priority 2018, dated 2021) are described below.

Test [1] has as its system HER2 S310F. Description: Tumor pHER2/pERK AlphaLisa in mice bearing HER2 S310F BaF3 tumors (Examples 15-18). The note with it: two day acute oral dosing, 15 mg/kg; at peak plasma levels. It counts as in vivo. The method, then:
(§1) Following the second dose, tumors were collected at 2 hours, 5 hours, 12 hours and 24 hours, and analyzed for both pHER2 activity and pERK activity via AlphaLisa. Plasma was also collected at these time points and analayzed for the presence of Compound No. 21 to determine pharmacokinetic profile. The tumor tissue was cut and homogenized using the Precellys Soft Tissue Homogenizing kit (KT03961-1-00.3.2) containing T-PER tissue protein extraction reagent (Thermo Scientific #78510), supplemented with Protease Inhibitor (Sigma P8340), and Phosphatase Inhibitors II and III (Sigma P5726 and P0044). Tissue samples were homogenized in the Precellys machine by spinning two times for one minute each. Sample tubes were centrifuged for 5 min at 15,000 rpm at 4° C. The supernatant was transferred to a fresh microtube and spun again for 5 minutes at 15,000 rpm at 4° C. Supernatant was then transferred to a fresh microtube and placed on ice. The protein concentration of the supernatant was measured using the BCA reagent Kit (Thermo Scientific #23225). Tumor tissue-derived lysates were analyzed for either HER2 activity or EGFR activity by detection of pHER2 (Tyr1221/1222) or pERK (Thr202/Tyr204) phosphosites, respectively, via AlphaLisa. Briefly, tumor Lysates were diluted to 0.5 ug/ul in 1× diluted SureFire Ultra Kit Lysis Buffer (5× supplied stock) supplemented with Protease Inhibitor (Sigma P8340) and Phosphatase Inhibitor II and III (Sigma P5726 and P0044). 10 ul of total tumor lysate was added per well in triplicate to a 384-well Opti-plate (Perkin Elmer #6007290). Activation Buffer was diluted 25-fold in combined Reaction Buffer 1 and Reaction Buffer 2, and acceptor beads were diluted 50-fold in the combined Reaction Buffers. 5 ul/well of the Acceptor bead:Reaction buffer mixture was added to each well.
as §1, with “No. 5” for “No. 21”, “Buffer (X” for “Buffer (5×”
To determine the ability of Compound No. 118 to inhibit tumor growth and induce tumor regression in vivo, a mouse tumor model containing the HER2 S310F mutation was used. Athymic nude mice from Charles River Labs bearing HER2 S310F BaF3 tumors were treated with two day acute oral dosing of Compound No. 118 at 15 mg/kg. […]
(In general: Alpha assays give light when donor and acceptor beads are brought close together.)

Test [2] has as its system CUTO-14 tumors (EGFR-Exon 20 insertion ASV). In words: Tumor growth in athymic nude mice bearing CUTO-14 tumors. The format is in vivo. The method, then:
To determine the ability of Compound No. 6 to inhibit tumor growth and induce tumor regression in vivo, a mouse tumor model containing the EGFR-Exon 20 insertion ASV (CUTO-14) mutation was used. Athymic nude mice from Charles River Labs bearing CUTO-14 tumors were treated with Compound No. 6 at either 50 mg/kg once per day (QD) or 25 mg/kg twice per day (BID) over the indicated time course, and tumor volume was measured. Tumor volume was analyzed to assess the effect of Compound No. 6 on tumor growth and regression.

Regarding `CC#CC(=O)Nc1cc2c(Nc3ccc(OCc4ccccn4)c(Cl)c3)ncnc2cc1OCCN1CCOCC1` [compound 5], in test [1], the “pERK1/2 (Thr202/Tyr204) in tumors” value is given as “reduction” and the “pHER2 (Tyr1221/1222) in tumors” value is reported as “reduction”.

As for `C=CC(=O)Nc1cc2c(Nc3cc(Cl)c(OCc4cccc(F)c4)cc3F)ncnc2cc1OCCN1CCOCC1` [compound 6], the Tumor volume entry in test [2] (25 mg/kg twice per day (BID), FIG. 32) was “decreased”; in test [2] (50 mg/kg once per day (QD), FIG. 32), “decreased”.

With `C=CC(=O)Nc1cc2c(Nc3ccc(OCc4ccccn4)c(Cl)c3)ncnc2cc1OCCN1CCOCC1` [compound 8], the Tumor volume result is on record as “decreased” in test [2] (30 mg/kg once per day (QD), FIG. 31) and “decreased” in test [2] (50 mg/kg twice per day (BID), FIG. 31).

For `C=CC(=O)Nc1cc2c(Nc3ccc(OCc4ccccn4)c(Cl)c3)ncnc2cc1OCCCN1CCOCC1` [compound 21], in test [1], the “pERK1/2 (Thr202/Tyr204) in tumors” value was “near complete reduction” and the “pHER2 (Tyr1221/1222) in tumors” value was “near complete reduction”.
